What was measured:
[1] = tested on: Kyn levels in BxPC3 cells (kynurenine generated by IDO1); experiment: Cellular Kyn assay (automated Kyn screening assay); type: cell-based; conditions: Homo sapiens, BXPC-3, 48 h, IFN-γ, L-Trp and compounds 48 h, mean ± SD, read-out: IC50 (Kyn assay), reduction of kynurenine levels
C57Bl/6 mice = experiment: Tolerability (dose escalation PO and IP); type: in vivo, male C57Bl/6 mice; conditions: for dose up to which no clinical signs were observed: dose escalation over 3-5 days
[2] = Pharmacokinetics of iDeg-6; type: in vivo, male C57Bl/6 mice; conditions: male, C57Bl/6, mouse, plasma
Method: In vivo pharmacology characterization was carried out at Pharmacelsus GmbH, Saarbrücken, Germany, using male C57Bl/6 mice. Food and water was provided ad libitum before and during each study. All experimental procedures were approved by and conducted in accordance with the regulations of the local Animal Welfare Authorities. Plasma samples were analysed by liquid chromatography tandem-mass spectrometry using a generic method. Pharmacokinetic parameters were calculated by non-compartmental analysis. […] Up to 120 mg/kg PO and 30 mg/kg IP no clinical signs were observed. […] Due to the larger plasma exposure of iDeg-6 the IP route was selected for efficacy studies.

SKOV-3 tumor = experiment: SKOV-3 tumor-bearing mouse model; type: in vivo, NSG immunodeficient mice; conditions: 30 mg kg−1 IP twice daily
Method: Incubation at 37 °C for 3 h. Representative data for n = 3. c) Time‐course of heme displacement from IDO1 detected by the absorbance at the Soret peak (404 nm) as a function of time. […] All curves were fit using a one‐site model with N = 1 and defined IDO1 concentration. Left plots show baseline corrected data, while right plots show integrated binding isotherms versus iDegs/IDO1 ratio. IDO1 protein (125 µM) was titrated into the stirred sample cell containing iDegs (25 µM, except for iDeg‐8 at 50 µM). Representative data for n = 3, except for iDeg‐9 (n = 2). g)–i) In vivo activity of iDeg‐6. NSG immunodeficient mice were injected with SKOV‐3 cells. Mice were treated with 18 intraperitoneal injections of iDeg‐6 (30 mg kg^−1) or vehicle. The pharmacological treatment was twice daily. Tumor volume was determined weekly by digital caliper. g) SKOV‐3 tumor growth curves in iDeg‐6‐treated mice (n = 12, green lines) or vehicle‐treated mice (n = 13, gray lines). Statistical analysis was performed by two‐way ANOVA: ****p < 0.001. h) Body weight changes during treatment window (mean values ± range). i) Survival data are shown by Kaplan‐Meier survival analysis. Mantel–Haenszel statistical analysis: p < 0.0001).
The limited clinical efficacy of IDO1 inhibitors is likely due in part to its non‐enzymatic functions that are not targeted by catalytic inhibition.^[ [32], [33], [34], [35], [36], [37], [38] ^] […] SKOV‐3 cells were subsequently engrafted into NSG immunodeficient mice to establish a SKOV‐3 tumor‐bearing model (Figure S11a). Mice were treated with iDeg‐6 at a dose of 30 mg kg^−1, administered twice daily for 18 days.
NSG female mice (NOD.Cg-PrkdcSCIDIl2rgtm1Wjl/SzJ) were purchased from Charles River (Calco, Italia) with 10 weeks age. […] Tumor volume was determined weekly by digital caliper from 10 days after tumor challenging to the endpoint of the experiment (day 80). […] All animal experiments were under the Amsterdam Protocol on animal protection and welfare: mice were monitored daily and euthanized when displaying excessive discomfort.

In the case of `C#Cc1ccc(NC(=O)OC[C@]23CN(S(=O)(=O)c4ccc(C(C)(C)C)cc4C)C[C@H]2C[C@H]2C[C@@H]3C2(C)C)cc1` [98 (iDeg-6), ((3aS,4R,6R,7aS)-2-((4-(tert-butyl)-2-methylphenyl)sulfonyl)-5,5-dimethyloctahydro-3aH-4,6-methanoisoindol-3a-yl)methyl (4-ethynylphenyl)carbamate], the IC50 [1] is reported as 14 ± 3 nM, the “clinical signs (in words)” value (C57Bl/6 mice; 60 mg/kg IP, individual animals, shortly after administration) is reported as “piloerection, subdued behavior” and the “dose up to which no clinical signs were observed” value (C57Bl/6 mice; IP) is reported as no more than 30 mg/kg. The “dose up to which no clinical signs were observed” value (C57Bl/6 mice; PO) was “Up to 120 mg/kg”, the “tolerability (in words)” value (C57Bl/6 mice; up to 30 mg kg−1 IP, no clinical signs) was “well tolerated” and the AUC(0-inf) ([2]; 1 mg/kg IV) was 414 ng·h/mL. For the same molecule, the C0 ([2]; 1 mg/kg IV) was 1120 ng/mL, the clearance ([2]; 1 mg/kg IV) was 40.3 mL/min/kg and the half-life ([2]; 1 mg/kg IV) was 1.1 h. For the same molecule, the Vd ([2]; 1 mg/kg IV, read-out: Vz) was 3.82 L/kg, the AUC(0-inf) ([2]; 30 mg/kg IP) was 7040 ng·h/mL and the Cmax ([2]; 30 mg/kg IP) was 872 ng/mL. The bioavailability ([2]; 30 mg/kg IP) was 57%, the half-life ([2]; 30 mg/kg IP) was 4 h and the “body weight (in words)” value (SKOV-3 tumor) was “no significantly negative impact on body weight”. For the same molecule, the “overall survival (in words)” value (SKOV-3 tumor; Kaplan-Meier) was “significantly improved the overall survival time” and the “tumor growth (in words)” value (SKOV-3 tumor; p < 0.001 vs control) was “significant inhibition of tumor growth”.
